Side chains are listed from the residue outwards. Ends that are not written are not given here. BAPTES = N-(3-(triethoxysilyl)propyl)buta-2,3-dienamide; Fe3O4 nanoparticle = not defined here
B1: Fe3O4-BAPTES-Peptide NPs (NP-Pep): high affinity cTnI-binding peptide HWQIAYNEHQWQC on BAPTES-silanized Fe3O4 nanoparticles (peptide)
peptide: HWQIAYNEHQWQC([BAPTES-Fe3O4 nanoparticle])
modifications: not fully specified; reading uncertain
notes: Synthetic peptide (GenScript) found by phage display and in silico evolution (literature); Many copies on each nanoparticle (about 1.5 peptide/nm^2 in the text); In the assay it stood on the particle, not free; also called NP-Peptide; Fe3O4-Peptide NPs

Key:
cTnI = cTnI (Homo sapiens, UniProt P19429); settings: peptide evolved by phage display and in silico evolution; targets cTnI residues 114-144; read-out: binding affinity (Kd); cited from earlier work
[1] = target: T1, human serum albumin (HSA) (human, UniProt P02768 25-609); assay: nanoparticle pull-down from human serum (10 mg) spiked with cTnI, SDS-PAGE and top-down LC/MS
T1 construct: mature; also called C-HSA; C-C-HSA
Protocol: To this end, cTnI enrichment was performed from human serum spiked-in with the cTnI extracted from the same donor, DCM, and post-mortem heart samples as in FIGS. 4-6. The endogenous cTnI obtained from the different human heart samples were used as the reference cTnI sources and served to mimic cTnI found in the blood.
Comparison of the cTnI enrichment performance of the NP-Pep platform against the agarose-mAb or agarose-Pep platform from human serum spiked with cTnI. The enrichment workflow was performed in a cold room held at 4° C. to minimize possible artifactual protein modifications, such as oxidation. NP-Control (NP-BAPTES),NP-Pep (Fe₃O₄-BAPTES-Peptide), Agarose-Control beads (no coupling), Agarose-Pep beads, and Agarose-mAb beads were incubated with in a protein loading mixture containing human male AB serum (10 mg) and sarcomeric tissue extract obtained from healthy donor heart tissue, diseased heart tissue of DCM, and post-mortem heart tissue containing 306 ng cTnI, 482 ng cTnI, and 465 ng cTnI in the protein extract, respectively. cTnI values were determined by ELISA quantification as previously described. The loading mixture (L), flow through (F), and elution mixture (E) were collected, desalted using a 10 kDa MWCO, and buffer exchanged prior to SDS-PAGE gel analysis or LC-MS analysis as described in the tissue enrichment protocol.

cTnI, sequence (P19429 whole entry, the tested form may be a part): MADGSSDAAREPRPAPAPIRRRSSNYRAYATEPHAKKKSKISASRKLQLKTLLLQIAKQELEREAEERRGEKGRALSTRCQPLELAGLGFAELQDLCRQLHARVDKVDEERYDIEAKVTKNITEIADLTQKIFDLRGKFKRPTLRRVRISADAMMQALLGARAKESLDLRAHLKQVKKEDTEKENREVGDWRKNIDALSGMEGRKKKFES
T1 sequence (P02768 25-609): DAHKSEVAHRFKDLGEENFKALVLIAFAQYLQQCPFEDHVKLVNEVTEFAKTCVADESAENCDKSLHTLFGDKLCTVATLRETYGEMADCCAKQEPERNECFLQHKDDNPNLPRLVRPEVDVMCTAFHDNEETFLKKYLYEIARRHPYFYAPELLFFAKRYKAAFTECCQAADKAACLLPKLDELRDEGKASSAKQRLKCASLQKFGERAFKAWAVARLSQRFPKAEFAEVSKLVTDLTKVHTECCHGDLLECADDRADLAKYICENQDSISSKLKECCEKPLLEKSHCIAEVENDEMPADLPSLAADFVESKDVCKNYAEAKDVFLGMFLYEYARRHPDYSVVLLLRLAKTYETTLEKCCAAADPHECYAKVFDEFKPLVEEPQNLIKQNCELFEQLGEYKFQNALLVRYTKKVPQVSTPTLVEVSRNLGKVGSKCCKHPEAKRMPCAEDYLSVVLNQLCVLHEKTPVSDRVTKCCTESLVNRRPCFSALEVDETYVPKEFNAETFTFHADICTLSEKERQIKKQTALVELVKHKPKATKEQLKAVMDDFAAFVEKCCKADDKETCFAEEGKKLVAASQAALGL

| Molecule | Kd (cTnI) | binding result [1] |
| --- | --- | --- |
| HWQIAYNEHQWQ | 0.27 nM | – |
| B1 | – | no binding |
